The subject of test [1] is non-replicating cultures of M. tuberculosis H37Rv transformed with lux ABCDE. In words: microbe, parasite or virus in culture. In kind it is cell-based, Mycobacterium tuberculosis. To be noted: for MIC90: ≥90% reduction in luminescence, read-out: MIC90 LORA; for MIC90 LORA/MABA: ratio of LORA MIC90 to MABA MIC90. Background: Alamar Blue is a resazurin reagent that responds to reducing activity.

Test [2] concerns M. tuberculosis transformed with luxABCDE. In words: microbe, parasite or virus in culture. To be noted: for MBC: ≥99% reduction in luminescence, read-out: MBC99 Day 7 (Lux Assay) MBC. In kind it is cell-based, Mycobacterium tuberculosis.
The mark [3] stands for this setting: Mycobacterium tuberculosis, H37RV.
[4] abbreviates: Mycobacterium tuberculosis, 168 h.

Like-named read-outs stand apart in the source and are kept apart here.

For `CO[C@H]1/C=C/O[C@@]2(C)Oc3c(C)c(O)c4c(=O)c(c5oc6cc(N7CCN(C(=O)c8ccccc8)CC7)cc(OCc7ccc(CN8CCOCC8)cc7)c6nc-5c4c3C2=O)NC(=O)/C(C)=C\C=C\[C@H](C)[C@H](O)[C@@H](C)[C@@H](O)[C@@H](C)[C@H](OC(C)=O)[C@@H]1C` [Compound 17m, (7S,9E,11S,12R,13S,14R,15R,16R,17S,18S,19E,21Z)-30-(4-benzoylpiperazin-1-yl)-2,15,17-trihydroxy-1-methoxy-3,7,12,14,16,18,22-heptamethyl-32-{[4-(morpholin-4-ylmethyl)phenyl]methoxy}-6,23,37-trioxo-8,27,38-trioxa-24,34-diazahexacyclo-[23.11.1.1^4,7.0^5,36.0^26,35.0^28,33]octatriaconta-1,3,5(36)9,19,21,25,28,30,32,34-undecaen-13-yl acetate], in test [1], the “MIC90 LORA Rel to RMP” value was 1.4 and the “MIC90 LORA/MABA” value amounted to 4.2. Also, in test [1] (setting [3]), the MIC90 was found to be 0.072 µM. Moreover, the “MBC99 Day 7 (Lux Assay) MBC Rel to RMP” value in test [2] was 0.48. Besides, in test [2] (setting [4]), the MBC came out at 0.217 µM.
As to `CO[C@H]1/C=C/O[C@@]2(C)Oc3c(C)c(O)c4c(=O)c(c5oc6cc(N7CCN(C(=O)c8ccncc8)CC7)cc(OCc7ccc(CN8CCOCC8)cc7)c6nc-5c4c3C2=O)NC(=O)/C(C)=C\C=C\[C@H](C)[C@H](O)[C@@H](C)[C@@H](O)[C@@H](C)[C@H](OC(C)=O)[C@@H]1C` [Compound 17n, 7S,9E,11S,12R,13S,14R,15R,16R,17S,18S,19E,21Z)-2,15,17-trihydroxy-11-methoxy-3,7,12,14,16,18,22-heptamethyl-32-{[4-(morpholin-4-ylmethyl)phenyl]methoxy}-6,23,37-trioxo-30-{4-[(pyridin-4-yl)carbonyl]piperazin-1-yl}-8,27,38-trioxa-24,34-diazahexacyclo[23.11.1.1^4,7.0^5,36.0^26,35.0^28,33]octatriaconta-1,3,5(36)9,19,21,25,28,30,32,34-undecaen-13-yl acetate], in test [1], the “MIC90 LORA Rel to RMP” value was 4.7 and the “MIC90 LORA/MABA” value was determined as 3.2. Besides, the MIC90 in test [1] (setting [3]) was 0.235 µM. For the same compound, the “MBC99 Day 7 (Lux Assay) MBC Rel to RMP” value in test [2] came out at 0.70. Also, in test [2] (setting [4]), the MBC worked out at 0.315 µM.
With `CO[C@H]1/C=C/O[C@@]2(C)Oc3c(C)c(O)c4c(=O)c(c5oc6cc(N7CCOC(CN(C)C)C7)cc(OCc7ccc(CN8CCOCC8)cc7)c6nc-5c4c3C2=O)NC(=O)/C(C)=C\C=C\[C@H](C)[C@H](O)[C@@H](C)[C@@H](O)[C@@H](C)[C@H](OC(C)=O)[C@@H]1C` (stereo partly drawn) [Compound 17o, (7S,9E,11S,12R,13S,14R,15R,16R,17S,18S,19E,21Z)-30-{2-[(dimethylamino)methyl]morpholin-4-yl}-2,15,17-trihydroxy-11-methoxy-3,7,12,14,16,18,22-heptamethyl-32-{[4-(morpholin-4-ylmethyl)phenyl]methoxy}-6,23,37-trioxo-8,27,38-trioxa-24,34-diazahexacyclo[23.11.1.1^4,7.0^5,36.0^26,35.0^28,33]octatriaconta-1,3,5(36)9,19,21,25,28,30,32,34-undecaen-13-yl acetate], in test [1], the “MIC90 LORA Rel to RMP” value is reported as 2.1 and the “MIC90 LORA/MABA” value is reported as 19. Also, the MIC90 in test [1] (setting [3]) was found to be 0.106 µM. In test [2], the “MBC99 Day 7 (Lux Assay) MBC Rel to RMP” value is recorded as 0.28. Moreover, in test [2] (setting [4]), the MBC came to 0.128 µM.
On to `CO[C@H]1/C=C/O[C@@]2(C)Oc3c(C)c(O)c4c(=O)c(c5oc6cc(N7CCN(CC(C)C)CC7)cc(OCc7ccc(CN8CCN(C)CC8)cc7)c6nc-5c4c3C2=O)NC(=O)/C(C)=C\C=C\[C@H](C)[C@H](O)[C@@H](C)[C@@H](O)[C@@H](C)[C@H](OC(C)=O)[C@@H]1C` [Compound 17p, (7S,9E,11S,12R,13S,14R,15R,16R,17S,18S,19E,21Z)-2,15,17-trihydroxy-11-methoxy-3,7,12,14,16,18,22-heptamethyl-32-({4-[(4-methylpiperazin-1-yl)methyl]phenyl}methoxy)-30-[4-(2-methylpropyl)piperazin-1-yl]-6,23,37-trioxo-8,27,38-trioxa-24,34-diazahexacyclo-[23.11.1.1^4,7.0^5,36.0^26,35.0^28,33]octatriaconta-1,3,5(36)9,19,21,25,28,30,32,34-undecaen-13-yl acetate], for which the MIC90 in test [1] (setting [3]) came to 0.035 µM. The “MIC90 LORA/MABA” value in test [1] is 3.7. Moreover, the “MBC99 Day 7 (Lux Assay) MBC Rel to RMP” value in test [2] was 0.20. In addition, the MBC in test [2] (setting [4]) came out at 0.092 µM.
As to `CO[C@H]1/C=C/O[C@@]2(C)Oc3c(C)c(O)c4c(=O)c(c5oc6cc(N7CCC(C(=O)O)CC7)cc(OCc7ccc(CN8CCN(C)CC8)cc7)c6nc-5c4c3C2=O)NC(=O)/C(C)=C\C=C\[C@H](C)[C@H](O)[C@@H](C)[C@@H](O)[C@@H](C)[C@H](OC(C)=O)[C@@H]1C` [Compound 17q, 1-[(7S,9E,11S,12R,13S,14R,15R,16R,17S,18S,19E,21Z)-13-(acetyloxy)-2,15,17-trihydroxy-11-methoxy-3,7,12,14,16,18,22-heptamethyl-32-({4-[(4-methylpiperazin-1-yl)methyl]phenyl}methoxy)-6,23,37-trioxo-8,27,38-trioxa-24,34-diazahexacyclo-[23.11.1.1^4,7.0^5,36.0^26,35.0^28,33]-octatriaconta-1,3,5(36)9,19,21,25,28,30,32,34-undecaen-30-yl]piperidine-4-carboxylic acid], the MIC90 in test [1] (setting [3]) was over 0.02 µM. Moreover, the MBC in test [2] (setting [4]) is over 0.1 µM.
As for `CO[C@H]1/C=C/O[C@@]2(C)Oc3c(C)c(O)c4c(=O)c(c5oc6cc(N7CCN(C(=O)c8ccc9occc9c8)CC7)cc(OCc7ccc(CN8CCOCC8)cc7)c6nc-5c4c3C2=O)NC(=O)/C(C)=C\C=C\[C@H](C)[C@H](O)[C@@H](C)[C@@H](O)[C@@H](C)[C@H](OC(C)=O)[C@@H]1C` [Compound 17s, (7S,9E,11S,12R,13S,14R,15R,16R,17S,18S,19E,21Z)-30-{4-[(1-benzofuran-5-yl)carbonyl]piperazin-1-yl}-2,15,17-trihydroxy-11-methoxy-3,7,12,14,16,18,22-heptamethyl-32-{[4-(morpholin-4-ylmethyl)phenyl]methoxy}-6,23,37-trioxo-8,27,38-trioxa-24,34-diazahexacyclo[23.11.1.1^4,7.0^5,36.0^26,35.0^28,33]octatriaconta-1,3,5(36)9,19,21,25,28,30,32,34-undecaen-13-yl acetate], in test [1], the “MIC90 LORA Rel to RMP” value is listed as 0.60 and the “MIC90 LORA/MABA” value is recorded as 1.7. Further, the MIC90 in test [1] (setting [3]) came to 0.03 µM. Moreover, in test [2], the “MBC99 Day 7 (Lux Assay) MBC Rel to RMP” value worked out at 0.19. Moreover, in test [2] (setting [4]), the MBC was 0.084 µM.
Take `CO[C@H]1/C=C/O[C@@]2(C)Oc3c(C)c(O)c4c(=O)c(c5oc6cc(N7CCN(C(=O)c8ccc(-c9ccc(C(N)=O)cc9)cc8)CC7)cc(OCc7ccc(CN8CCOCC8)cc7)c6nc-5c4c3C2=O)NC(=O)/C(C)=C\C=C\[C@H](C)[C@H](O)[C@@H](C)[C@@H](O)[C@@H](C)[C@H](OC(C)=O)[C@@H]1C` [Compound 17t, (7S,9E,11S,12R,13S,14R,15R,16R,17S,18S,19E,21Z)-30-(4-{[4-(4-carbamoylphenyl)-phenyl]carbonyl}piperazin-1-yl)-2,15,17-trihydroxy-11-methoxy-3,7,12,14,16,18,22-heptamethyl-32-{[4-(morpholin-4-ylmethyl)phenyl]methoxy}-6,23,37-trioxo-8,27,38-trioxa-24,34-diazahexacyclo[23.11.1.1^4,7.0^5,36.0^26,35.0^28,33]octatriaconta-1,3,5(36)9,19,21,25,28,30,32,34-undecaen-13-yl acetate]: in test [1], the “MIC90 LORA Rel to RMP” value is recorded as 1.2, the MIC90 was 0.059 µM and the “MIC90 LORA/MABA” value is reported as 1.8. Moreover, in test [2], the “MBC99 Day 7 (Lux Assay) MBC Rel to RMP” value came to 0.12 and the MBC was 0.086 µM.
With `CO[C@H]1/C=C/O[C@@]2(C)Oc3c(C)c(O)c4c(=O)c(c5oc6cc(N7CCN(C(C)=O)CC7)cc(C)c6nc-5c4c3C2=O)NC(=O)/C(C)=C\C=C\[C@H](C)[C@H](O)[C@@H](C)[C@@H](O)[C@@H](C)[C@H](OC(C)=O)[C@@H]1C` [Compound 26d, (7S,9E,11S,12R,13S,14R,15R,16R,17S,18S,19E,21Z)-30-(4-Acetylpiperazin-1-yl)-2,15,17-trihydroxy-11-methoxy-3,7,12,14,16,18,22,32-octamethyl-6,23,37-trioxo-8,27,38-trioxa-24,34-diazahexacyclo[23.11.1.1^4,7.0^5,36.0^26,35.0^28,33]octatriaconta-1(36)2,4,9,19,21,25,28,30,32,34-undecaen-13-yl acetate], the MIC90 in test [1] (setting [3]) is over 0.02 µM. In test [2] (setting [4]), the MBC was over 0.1 µM.
On to `CCC(=O)N1CCN(c2cc(C)c3nc4c5c6c7c(C)c(O)c5c(=O)c(c-4oc3c2)NC(=O)/C(C)=C\C=C\[C@H](C)[C@H](O)[C@@H](C)[C@@H](O)[C@@H](C)[C@H](OC(C)=O)[C@H](C)[C@@H](OC)/C=C/O[C@@](C)(O7)C6=O)CC1` [Compound 26e, (7S,9E,11S,12R,13S,14R,15R,16R,17S,18S,19E,21Z)-2,15,17-Trihydroxy-11-methoxy-3,7,12,14,16,18,22,32-octamethyl-6,23,37-trioxo-30-(4-propanoylpiperazin-1-yl)-8,27,38-trioxa-24,34-diazahexacyclo[23.11.1.1^4,7.0^5,36.0^26,35.0^28,33]octatriaconta-1(36)2,4,9,19,21,25,28,30,32,34-undecaen-13-yl acetate], for which the MIC90 in test [1] (setting [3]) was over 0.02 µM. Further, the “MBC99 Day 7 (Lux Assay) MBC Rel to RMP” value in test [2] was 0.19. Further, the MBC in test [2] (setting [4]) was 0.087 µM.

(Values after patent US20250188092A1, “RIFAMYCIN ANALOGS” (THE REGENTS OF THE UNIVERSITY OF MICHIGAN, priority 2021, published 2025).)
